Measurements taken from patent US11655254B2, “Substituted piperazines as BTK inhibitors” (HUTCHISON MEDIPHARMA LIMITED, priority 2020, dated 2023).

Tests used:
[1] = tested on: B cell activation in rat whole blood; assay: Determination of B cell activity in whole blood of rats (anti-rat IgD induced); assay type: cell-based; details: anti-rat immunoglobulin D, 18 hours, flow cytometry B220/CD86, read-out: IC50 value, inhibiting B cell activation in rat whole blood
Experimental: In the determination of the compound activity, the collected peripheral whole blood of rat was added to a 96 well plate at 80 μL/well and cultured in a 5% CO2, 37° C. cell incubator. […]
On the second day, the 96-well plates were taken out and the flow cytometry antibody mixture (the final concentration of anti-rat B220PE antibody was 1 μg/mL and the final concentration of anti-rat CD86 FITC antibody was 1 μg/mL) diluted with PBS was added to each well of plate, which were incubated for 30 minutes in the dark, and then 50 […] of blood from each well was pipetted to the freshly prepared 500 μL of lysis buffer to lyse red blood cells. The plates were shaken for 20 minutes, centrifuged to remove the supernatant, then washed, fixed, and detected on a flow cytometer.
The B cell activation in the sample was determined by flow dyeing method. […]
The inhibition ratio is calculated as follows: inhibition ratio (%)=100%−{(treating well for the test compound−negative control treating well)/(control treating well for anti-rat immunoglobulin D−negative control treating well)}×100%, wherein, […]

[2] = tested on: ITP mice (anti-mouse CD41 antibodies); assay: Idiopathic thrombocytopenic purpura induced by anti-CD41 antibody in mice; assay type: in vivo; details: 8 hours after modeling, single oral dose
Experimental: Male C57BL/6 mice were purchased from Shanghai Lingchang Biotechnology Co., Ltd. (certificate number 20180003011079, initial body weight of 18-20 grams), and were randomly grouped according to Table 4, with 8 mice in each group. […] When modeling, each mouse was intraperitoneally injected with 200 μL of PBS solution containing 2 μg of anti-mouse CD41 antibodies (BD, Cat #: 553487, Lot #: 7026765).
Eight hours and twenty-four hours after modeling, the whole blood was collected and placed in a centrifuge tube coated with 10% citrate-phosphate-dextrose-adenine (CPDA), and the level of platelets (PLT) in the whole blood was measured by an XT-2000i (SYSMEX) automatic blood analyzer (Shanghai Laboratory Animal Research Centre Sino-British SIPPR/B & K Lab Animal Ltd).
The average level of platelets in peripheral blood was analyzed with Graphpad statistical software by one way ANOVA followed by Fisher LSD multiple comparison test, and the p value was calculated, wherein *p<0.05 indicated a statistically significant difference compared with the vehicle control group, **p<0.01 indicated a statistically extremely significant difference compared with the vehicle control group, and ##p<0.01 indicated a statistically extremely significant difference compared with the normal group. […]

In the case of C[C@H]1CN(C2COC2)C[C@H](C)N1c1ccc(Nc2cc(-c3ccnc(-n4ccn5c6c(cc5c4=O)CC(C)(C)C6)c3CO)cn(C)c2=O)nc1 [Compound 1, 2-(5-((5-((2S,6S)-2,6-dimethyl-4-(oxetan-3-yl)piperazin-1-yl)pyridin-2-yl)amino)-3′-(hydroxymethyl)-1-methyl-6-oxo-1,6-dihydro-[3,4′-bipyridin]-2′-yl)-7,7-dimethyl-7,8-dihydro-2H-cyclopenta[4,5]pyrrolo[1,2-a]pyrazin-1(6H)-one], the IC50 [1] is reported as 1 nM and the minimum effective dose [2] is reported as 0.04 mg/kg.
